For assay [1], the target named is Serine/threonine-protein kinase PAK 4 (Homo sapiens, UniProt O96013). Put plainly: Selectivity interaction (Upstate Kinase Profiler service (Millipore)) EUB0000056c PAK4. To be noted: at 1 µM.
Assay [2] addresses Serine/threonine-protein kinase 24 (Homo sapiens) (UniProt Q9Y6E0). As to the kind of experiment: Selectivity interaction (ProQinase) EUB0000171b STK24.
For assay [3], the target named is T1, Phosphatidylinositol 5-phosphate 4-kinase type-2 gamma (Homo sapiens) (UniProt Q8TBX8).
T1 sequence (whole entry): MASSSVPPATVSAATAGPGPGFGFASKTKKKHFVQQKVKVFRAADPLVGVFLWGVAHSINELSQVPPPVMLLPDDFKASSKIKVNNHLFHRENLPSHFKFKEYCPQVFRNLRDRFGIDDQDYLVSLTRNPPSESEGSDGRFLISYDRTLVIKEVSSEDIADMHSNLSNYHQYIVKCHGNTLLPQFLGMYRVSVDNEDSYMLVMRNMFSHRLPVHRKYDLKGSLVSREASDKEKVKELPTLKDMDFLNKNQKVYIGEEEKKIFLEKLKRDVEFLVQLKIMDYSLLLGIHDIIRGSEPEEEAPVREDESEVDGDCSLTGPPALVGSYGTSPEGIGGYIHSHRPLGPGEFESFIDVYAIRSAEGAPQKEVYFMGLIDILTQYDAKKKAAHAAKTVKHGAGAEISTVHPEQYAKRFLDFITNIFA
Put plainly: Selectivity interaction (Ambit KINOMEscan and KiNATiv profiling in Jurkat cells) EUB0000090b PIP4K2C. The format is cell-based. The note with it: at 1 µM.

The target in assay [4] is BMP-2-inducible protein kinase (Homo sapiens) (UniProt Q9NSY1). Put plainly: Selectivity interaction (KinomeScan (DiscoverX)) EUB0001079a BMP2K. To be noted: at 1 µM.
Assay [5] deals with Proto-oncogene tyrosine-protein kinase Src (Homo sapiens, UniProt P12931). As to the kind of experiment: Selectivity interaction (KinomeScan (DiscoverX)) EUB0001079a SRC. The note with it: at 1 µM.
In assay [6] the target is Tyrosine-protein kinase JAK1 (Homo sapiens, UniProt P23458). As to the kind of experiment: Selectivity interaction (KinomeScan (DiscoverX)) EUB0000092b JAK1. To be noted: at 10 µM.
The target in assay [7] is MAP kinase-interacting serine/threonine-protein kinase 2 (Homo sapiens, UniProt Q9HBH9). Put plainly: Selectivity interaction (KinomeScan (DiscoverX)) EUB0000695a MKNK2. To be noted: at 100 nM.
Assay [8] has as its target Ribosomal protein S6 kinase beta-1 (Homo sapiens, UniProt P23443). As to the kind of experiment: Selectivity interaction (KinomeScan (DiscoverX)) EUB0000666a RPS6KB1. To be noted: at 10 µM.
In assay [9] the target is T2, Serine/threonine-protein kinase DCLK3 (Homo sapiens) (UniProt Q9C098).
T2 sequence (whole entry): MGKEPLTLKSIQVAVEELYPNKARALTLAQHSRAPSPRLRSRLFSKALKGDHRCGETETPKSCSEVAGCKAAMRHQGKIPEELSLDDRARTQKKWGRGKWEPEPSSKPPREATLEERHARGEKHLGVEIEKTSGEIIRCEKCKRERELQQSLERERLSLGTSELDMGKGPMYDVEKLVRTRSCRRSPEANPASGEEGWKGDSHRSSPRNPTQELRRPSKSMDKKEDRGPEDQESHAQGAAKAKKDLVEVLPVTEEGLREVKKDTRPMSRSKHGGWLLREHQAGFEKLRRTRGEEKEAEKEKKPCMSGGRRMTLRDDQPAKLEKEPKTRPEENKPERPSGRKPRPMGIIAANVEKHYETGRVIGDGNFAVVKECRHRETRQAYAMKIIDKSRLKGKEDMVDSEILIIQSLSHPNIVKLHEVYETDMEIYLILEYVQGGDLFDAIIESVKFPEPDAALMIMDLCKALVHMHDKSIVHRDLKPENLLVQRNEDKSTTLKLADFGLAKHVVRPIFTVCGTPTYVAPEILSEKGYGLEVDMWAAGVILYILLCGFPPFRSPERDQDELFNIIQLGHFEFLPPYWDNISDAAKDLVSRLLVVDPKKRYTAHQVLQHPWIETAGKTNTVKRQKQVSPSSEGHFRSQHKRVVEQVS
Put plainly: Selectivity interaction (KinomeScan (DiscoverX)) EUB0000229b DCLK3. To be noted: at 10 µM.

Assay [10] deals with T3, Tyrosine-protein kinase Mer (Homo sapiens) (UniProt Q12866).
T3 sequence (whole entry): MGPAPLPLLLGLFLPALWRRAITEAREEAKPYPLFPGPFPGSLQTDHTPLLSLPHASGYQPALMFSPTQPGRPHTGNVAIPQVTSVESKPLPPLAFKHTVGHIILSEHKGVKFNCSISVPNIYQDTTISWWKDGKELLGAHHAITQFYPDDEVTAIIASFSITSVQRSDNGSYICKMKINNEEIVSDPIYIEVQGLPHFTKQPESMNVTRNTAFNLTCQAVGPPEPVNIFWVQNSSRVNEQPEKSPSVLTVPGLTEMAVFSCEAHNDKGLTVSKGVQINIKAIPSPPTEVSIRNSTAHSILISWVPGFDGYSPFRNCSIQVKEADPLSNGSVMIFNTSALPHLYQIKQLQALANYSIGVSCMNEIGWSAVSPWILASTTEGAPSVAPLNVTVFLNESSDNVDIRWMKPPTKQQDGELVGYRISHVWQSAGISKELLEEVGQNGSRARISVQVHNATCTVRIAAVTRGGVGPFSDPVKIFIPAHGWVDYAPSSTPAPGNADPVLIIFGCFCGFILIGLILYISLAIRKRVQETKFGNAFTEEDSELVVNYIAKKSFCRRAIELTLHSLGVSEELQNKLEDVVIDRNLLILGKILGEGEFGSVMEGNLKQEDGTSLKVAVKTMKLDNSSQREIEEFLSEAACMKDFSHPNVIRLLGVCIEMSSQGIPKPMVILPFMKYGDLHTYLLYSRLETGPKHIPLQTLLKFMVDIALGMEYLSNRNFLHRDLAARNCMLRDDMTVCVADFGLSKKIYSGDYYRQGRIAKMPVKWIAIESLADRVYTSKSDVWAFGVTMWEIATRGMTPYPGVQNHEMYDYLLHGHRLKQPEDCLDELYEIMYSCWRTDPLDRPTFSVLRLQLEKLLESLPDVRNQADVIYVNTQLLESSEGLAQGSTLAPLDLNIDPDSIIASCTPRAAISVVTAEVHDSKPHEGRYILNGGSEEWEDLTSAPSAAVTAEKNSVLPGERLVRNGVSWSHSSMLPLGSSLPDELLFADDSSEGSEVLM
Put plainly: Selectivity interaction (KinomeScan (DiscoverX)) EUB0000595a MERTK. The note with it: at 10 µM.

The target in assay [11] is Sodium-dependent noradrenaline transporter (Homo sapiens, UniProt P23975). Put plainly: Selectivity interaction (Safety Panel 44tm (Eurofins)) EUB0000162b SLC6A2. To be noted: at 10 µM.
Assay [12] concerns the target Mitogen-activated protein kinase kinase kinase kinase 4 (Homo sapiens, UniProt O95819). As to the kind of experiment: Selectivity interaction (Kinase panel (literature)) EUB0001199aCl MAP4K4. To be noted: at 1 µM.
The target in assay [13] is Serine/threonine-protein kinase pim-1 (Homo sapiens, UniProt P11309). Put plainly: Selectivity interaction (Kinase panel (literature)) EUB0001199aCl PIM1. To be noted: at 1 µM.

Sequence of Serine/threonine-protein kinase 24 (Homo sapiens) (Q9Y6E0 whole entry, looked up): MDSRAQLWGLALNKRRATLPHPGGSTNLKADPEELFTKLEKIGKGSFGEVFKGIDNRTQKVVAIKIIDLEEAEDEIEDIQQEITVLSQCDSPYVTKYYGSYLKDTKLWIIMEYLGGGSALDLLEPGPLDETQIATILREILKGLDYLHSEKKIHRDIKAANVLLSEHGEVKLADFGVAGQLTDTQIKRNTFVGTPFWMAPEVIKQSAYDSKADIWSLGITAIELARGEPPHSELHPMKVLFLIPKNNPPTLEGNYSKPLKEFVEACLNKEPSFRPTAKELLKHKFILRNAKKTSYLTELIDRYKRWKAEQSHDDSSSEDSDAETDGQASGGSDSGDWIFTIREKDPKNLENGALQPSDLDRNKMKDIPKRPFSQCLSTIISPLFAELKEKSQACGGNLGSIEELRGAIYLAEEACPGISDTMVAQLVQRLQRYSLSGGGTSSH
Sequence of Proto-oncogene tyrosine-protein kinase Src (P12931 2-536 limits assumed): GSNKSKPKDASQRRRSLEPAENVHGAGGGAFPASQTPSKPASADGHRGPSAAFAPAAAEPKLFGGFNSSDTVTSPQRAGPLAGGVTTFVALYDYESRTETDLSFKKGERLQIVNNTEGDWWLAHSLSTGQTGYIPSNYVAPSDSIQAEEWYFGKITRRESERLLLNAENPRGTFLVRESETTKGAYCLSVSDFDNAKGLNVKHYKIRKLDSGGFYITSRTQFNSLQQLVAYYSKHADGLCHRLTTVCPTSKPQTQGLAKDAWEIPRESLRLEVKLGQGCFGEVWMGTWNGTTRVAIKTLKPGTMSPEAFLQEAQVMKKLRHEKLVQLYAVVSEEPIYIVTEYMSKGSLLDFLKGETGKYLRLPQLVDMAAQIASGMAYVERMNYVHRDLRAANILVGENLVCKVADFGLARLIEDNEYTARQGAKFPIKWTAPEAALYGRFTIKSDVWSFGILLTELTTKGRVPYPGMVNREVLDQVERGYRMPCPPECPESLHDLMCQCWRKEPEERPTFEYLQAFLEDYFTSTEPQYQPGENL
Sequence of Sodium-dependent noradrenaline transporter (P23975 whole entry): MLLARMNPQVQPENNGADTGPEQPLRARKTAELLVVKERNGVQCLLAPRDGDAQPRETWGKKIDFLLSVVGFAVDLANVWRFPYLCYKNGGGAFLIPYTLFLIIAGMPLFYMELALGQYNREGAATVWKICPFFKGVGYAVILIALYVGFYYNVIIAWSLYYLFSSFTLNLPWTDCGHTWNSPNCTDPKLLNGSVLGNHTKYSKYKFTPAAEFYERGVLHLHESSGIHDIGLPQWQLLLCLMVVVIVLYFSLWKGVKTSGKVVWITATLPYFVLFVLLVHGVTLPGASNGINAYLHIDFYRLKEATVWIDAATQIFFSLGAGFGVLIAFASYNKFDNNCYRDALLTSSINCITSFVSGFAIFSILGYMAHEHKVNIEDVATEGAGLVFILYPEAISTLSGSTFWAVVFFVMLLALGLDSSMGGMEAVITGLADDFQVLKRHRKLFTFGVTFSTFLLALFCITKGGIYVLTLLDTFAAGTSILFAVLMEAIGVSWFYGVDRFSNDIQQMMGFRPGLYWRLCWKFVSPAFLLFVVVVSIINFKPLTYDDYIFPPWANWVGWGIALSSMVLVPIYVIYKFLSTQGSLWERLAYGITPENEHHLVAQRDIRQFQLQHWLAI
Sequence of MAP kinase-interacting serine/threonine-protein kinase 2 (Q9HBH9 whole entry, looked up): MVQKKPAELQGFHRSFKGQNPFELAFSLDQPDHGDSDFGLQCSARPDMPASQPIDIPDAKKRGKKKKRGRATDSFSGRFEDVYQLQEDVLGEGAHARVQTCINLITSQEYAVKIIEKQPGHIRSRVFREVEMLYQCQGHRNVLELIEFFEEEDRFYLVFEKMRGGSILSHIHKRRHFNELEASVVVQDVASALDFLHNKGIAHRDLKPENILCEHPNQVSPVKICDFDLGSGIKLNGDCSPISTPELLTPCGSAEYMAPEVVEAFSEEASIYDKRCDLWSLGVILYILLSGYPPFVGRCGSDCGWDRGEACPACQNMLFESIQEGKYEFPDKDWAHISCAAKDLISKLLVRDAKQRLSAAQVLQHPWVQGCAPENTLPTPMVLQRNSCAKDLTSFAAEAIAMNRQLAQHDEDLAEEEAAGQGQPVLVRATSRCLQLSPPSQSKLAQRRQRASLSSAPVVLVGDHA
Sequence of Ribosomal protein S6 kinase beta-1 (P23443 whole entry, looked up): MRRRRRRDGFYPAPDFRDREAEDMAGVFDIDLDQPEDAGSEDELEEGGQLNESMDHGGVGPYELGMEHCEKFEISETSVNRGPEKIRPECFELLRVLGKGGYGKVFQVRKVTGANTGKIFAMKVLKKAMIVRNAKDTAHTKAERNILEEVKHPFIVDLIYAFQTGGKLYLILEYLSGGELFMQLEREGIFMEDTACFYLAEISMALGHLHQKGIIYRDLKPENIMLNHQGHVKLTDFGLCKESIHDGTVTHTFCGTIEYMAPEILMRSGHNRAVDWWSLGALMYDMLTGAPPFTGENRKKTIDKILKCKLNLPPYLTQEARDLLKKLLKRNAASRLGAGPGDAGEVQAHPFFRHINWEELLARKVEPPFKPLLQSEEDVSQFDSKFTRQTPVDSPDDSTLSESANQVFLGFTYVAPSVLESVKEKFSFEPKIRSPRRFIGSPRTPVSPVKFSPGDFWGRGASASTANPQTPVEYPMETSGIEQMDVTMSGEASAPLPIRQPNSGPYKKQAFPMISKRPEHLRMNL
Sequence of BMP-2-inducible protein kinase (Homo sapiens) (Q9NSY1 whole entry, looked up): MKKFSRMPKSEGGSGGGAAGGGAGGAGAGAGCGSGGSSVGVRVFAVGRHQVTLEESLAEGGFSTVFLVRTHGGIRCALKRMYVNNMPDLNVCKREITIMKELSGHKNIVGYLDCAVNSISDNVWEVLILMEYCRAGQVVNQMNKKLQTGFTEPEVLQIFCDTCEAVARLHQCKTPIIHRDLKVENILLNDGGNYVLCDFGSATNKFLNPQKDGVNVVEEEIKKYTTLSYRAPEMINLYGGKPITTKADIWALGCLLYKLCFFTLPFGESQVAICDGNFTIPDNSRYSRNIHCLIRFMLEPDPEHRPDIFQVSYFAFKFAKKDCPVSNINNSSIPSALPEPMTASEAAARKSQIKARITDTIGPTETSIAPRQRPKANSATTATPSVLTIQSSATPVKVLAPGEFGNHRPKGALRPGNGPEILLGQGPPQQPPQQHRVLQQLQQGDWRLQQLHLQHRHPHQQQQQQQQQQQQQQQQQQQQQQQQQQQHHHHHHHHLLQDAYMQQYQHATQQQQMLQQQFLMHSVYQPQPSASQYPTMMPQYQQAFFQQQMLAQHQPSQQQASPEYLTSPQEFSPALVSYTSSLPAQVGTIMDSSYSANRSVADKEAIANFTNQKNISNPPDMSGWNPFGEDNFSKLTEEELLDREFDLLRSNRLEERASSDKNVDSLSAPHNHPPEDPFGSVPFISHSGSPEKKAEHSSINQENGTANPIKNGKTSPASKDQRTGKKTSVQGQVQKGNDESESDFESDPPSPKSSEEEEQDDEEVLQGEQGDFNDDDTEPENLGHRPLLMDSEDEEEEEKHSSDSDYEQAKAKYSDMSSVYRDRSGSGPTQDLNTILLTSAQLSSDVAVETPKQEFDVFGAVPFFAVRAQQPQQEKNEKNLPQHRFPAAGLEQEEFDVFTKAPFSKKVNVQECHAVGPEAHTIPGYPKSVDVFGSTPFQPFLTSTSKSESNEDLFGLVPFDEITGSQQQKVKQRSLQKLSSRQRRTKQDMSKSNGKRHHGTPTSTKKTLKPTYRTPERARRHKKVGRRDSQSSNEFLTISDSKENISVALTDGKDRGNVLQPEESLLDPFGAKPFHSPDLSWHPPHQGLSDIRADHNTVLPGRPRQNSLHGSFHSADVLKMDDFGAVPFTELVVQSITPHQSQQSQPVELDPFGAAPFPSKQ
Sequence of Tyrosine-protein kinase JAK1 (P23458 whole entry): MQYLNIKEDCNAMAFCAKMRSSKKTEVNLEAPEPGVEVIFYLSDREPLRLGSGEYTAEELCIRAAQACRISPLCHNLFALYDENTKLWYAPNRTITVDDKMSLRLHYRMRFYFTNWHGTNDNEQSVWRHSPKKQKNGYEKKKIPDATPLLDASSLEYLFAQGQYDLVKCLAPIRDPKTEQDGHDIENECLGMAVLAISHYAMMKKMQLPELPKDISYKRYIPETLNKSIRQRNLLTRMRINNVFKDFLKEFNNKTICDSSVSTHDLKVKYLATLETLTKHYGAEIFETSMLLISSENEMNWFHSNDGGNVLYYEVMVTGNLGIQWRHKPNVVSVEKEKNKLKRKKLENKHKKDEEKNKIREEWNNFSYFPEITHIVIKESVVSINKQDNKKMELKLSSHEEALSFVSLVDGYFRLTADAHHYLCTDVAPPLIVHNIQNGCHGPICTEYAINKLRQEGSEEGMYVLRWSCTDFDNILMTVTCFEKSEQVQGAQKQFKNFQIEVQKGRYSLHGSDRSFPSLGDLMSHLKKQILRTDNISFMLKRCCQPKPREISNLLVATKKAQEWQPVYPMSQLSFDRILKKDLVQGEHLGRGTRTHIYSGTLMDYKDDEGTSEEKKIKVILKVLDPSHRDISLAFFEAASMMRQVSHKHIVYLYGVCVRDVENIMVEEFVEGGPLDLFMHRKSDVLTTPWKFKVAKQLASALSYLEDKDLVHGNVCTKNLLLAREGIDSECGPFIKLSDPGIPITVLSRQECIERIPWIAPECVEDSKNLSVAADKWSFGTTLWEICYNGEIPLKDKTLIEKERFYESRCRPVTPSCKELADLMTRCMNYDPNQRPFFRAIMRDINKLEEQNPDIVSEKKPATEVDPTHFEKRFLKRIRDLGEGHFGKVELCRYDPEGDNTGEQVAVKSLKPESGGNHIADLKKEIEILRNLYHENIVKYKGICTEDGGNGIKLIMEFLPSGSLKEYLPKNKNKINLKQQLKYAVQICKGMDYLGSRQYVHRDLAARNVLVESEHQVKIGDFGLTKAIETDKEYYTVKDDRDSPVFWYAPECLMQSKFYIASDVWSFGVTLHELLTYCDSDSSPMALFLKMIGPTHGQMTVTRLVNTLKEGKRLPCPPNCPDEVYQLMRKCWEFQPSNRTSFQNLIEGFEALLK

In [1], `Cc1ccc(-c2ccc3c(ccc4sc5c(c43)NC[C@@H](C)NC5=O)n2)cn1` came in with a % of inhibition of 3%.

With `C=CC(=O)Nc1cccc(C(=O)Nc2ccc(Nc3cc(-c4[nH]c(SC)nc4C)ccn3)cc2)c1`, the % of control amounted to 85% in [2] (at 1 µM) and 89% in assay [2] (at 5 µM).

In assay [3], `CN(C)C/C=C/C(=O)Nc1ccc(C(=O)N2CCCC(Nc3ncc(Cl)c(-c4c[nH]c5ccccc45)n3)C2)cc1` (centres undefined) registered a % of control of 91%.

For the molecule `Nc1cnc(N2CCc3cc(S(=O)(=O)Nc4c(F)cc(Cl)cc4F)cc(N4CCCC4=O)c32)nc1` [TP-020n], the figures for the % of control in [4] and in assay [5] were 88% and 99%, respectively. The molecule `CCC(=O)N1CCN(c2ccc(-n3c(=O)ccc4cnc5ccc(-c6cnc7ccccc7c6)cc5c43)cc2C(F)(F)F)CC1` registered a % of control in [6] of 76%. In [7], `Cc1cc(F)c(C(=O)Nc2cccc(-c3nncn3C(C)C)n2)cc1-n1cnc(C2CC2)c1` yielded a % of control of 75%. As for `O=C(NOC[C@H](O)CO)c1ccc(F)c(F)c1Nc1ccc(I)cc1F`, the % of control in assay [8] was 100%. `COc1cc(N(C)c2ccnc3ccc(C(F)(F)F)cc23)cc(OC)c1OC` had a % binding in [9] of 97%.

`COCC(=O)NC/C=C/c1ccc2ncnc(Nc3ccc(Oc4ccc(C)nc4)c(C)c3)c2c1` [CP-724714] had a % of control in assay [10] of 97%. With `CN(C)C(=O)Cn1cc(-c2ccc(-c3cncc4ccccc34)cc2)cn1`, in [11], the % of control was determined as 89%. Consider `CN1Cc2nccc(-c3cn(C)nc3-c3ccc(F)cc3)c2C1=O`, for which the values for the % of inhibition in [12] and in assay [13] were 65% and 4%, respectively.

These data come from ChEMBL document CHEMBL5465560, “Selectivity Literature for EUbOPEN Chemogenomic Library” (2024).
